Legend:
Type in all cases: in vivo
[1] = system: Italian ryegrass (Lolium multiflorum); assay: Test B pre-/postemergence plant response; details: for Ryegrass, Italian plant response rating: 8 g ai/ha
In short: (§1)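 Preemergence and postemergence (plants 2-18 cm, 1- to 4-leaf stage) applications used test chemicals in a non-phytotoxic solvent with surfactant. Plants were held in a greenhouse 13 to 15 days, then rated visually against controls on a 0-100 scale (0 no effect, 100 complete control).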

[2] = system: bermudagrass (Cynodon dactylon); assay: Test B pre-/postemergence plant response; details: for Bermudagrass plant response rating: 8 g ai/ha
In short: as §1

[3] = system: catchweed bedstraw (Galium aparine); assay: Test B pre-/postemergence plant response; details: Preemergence, scale 0 to 100
In short: as §1

[4] = system: giant foxtail (Setaria faberii); assay: Test B pre-/postemergence plant response; details: for Foxtail, Giant plant response rating: 8 g ai/ha
In short: as §1

[5] = system: goosegrass (Eleusine indica); assay: Test B pre-/postemergence plant response; details: for Goosegrass plant response rating: 8 g ai/ha
In short: as §1

[6] = system: johnsongrass (Sorghum halepense); assay: Test B pre-/postemergence plant response; details: for Johnsongrass plant response rating: 8 g ai/ha
In short: as §1

kochia (Kochia scoparia) = assay: Test B pre-/postemergence plant response; details: for Kochia plant response rating: 8 g ai/ha
In short: as §1

[7] = system: lambsquarters (Chenopodium album); assay: Test B pre-/postemergence plant response; details: for Lambsquarters plant response rating: 8 g ai/ha
In short: as §1

[8] = system: large crabgrass (Digitaria sanguinalis); assay: Test B pre-/postemergence plant response; details: for Crabgrass, Large plant response rating: 8 g ai/ha
In short: as §1

[9] = system: morningglory (Ipomoea coccinea); assay: Test B pre-/postemergence plant response; details: for Morningglory plant response rating: 8 g ai/ha
In short: as §1

[10] = system: pigweed (Amaranthus retroflexus); assay: Test B pre-/postemergence plant response; details: for Pigweed plant response rating: 8 g ai/ha
In short: as §1

soybean (Glycine max) = assay: Test B pre-/postemergence plant response; details: for Soybean plant response rating: 8 g ai/ha
In short: as §1

[11] = system: velvetleaf (Abutilon theophrasti); assay: Test B pre-/postemergence plant response; details: for Velvetleaf plant response rating: 8 g ai/ha
In short: as §1

rice (Oryza sativa) = assay: Test B flooded paddy test plant response
In short: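 Paddy-water application to 2-leaf plants in pots held under 3 cm of flooding; response is a 0–100 visual control rating against controls after 13 to 15 days, and a dash marks a missing result.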

[12] = Postemergence, 16 g ai/ha, scale 0 to 100
[13] = Postemergence, 31 g ai/ha, scale 0 to 100, 0 no effect, 100 complete control
[14] = Postemergence, 62 g ai/ha, scale 0 to 100, 0 no effect, 100 complete control
[15] = Preemergence, 16 g ai/ha, scale 0 to 100 (0 no effect, 100 complete control)
[16] = Preemergence, 31 g ai/ha, scale 0 to 100 (0 no effect, 100 complete control)
[17] = Preemergence, 62 g ai/ha, scale 0 to 100
[18] = Preemergence, 31 g ai/ha, 0 to 100 scale, 0 no effect, 100 complete control

Cc1cc(-c2ccc(C(F)(F)F)c(F)c2)nn1-c1c(O)c(C(F)(F)F)nn(C)c1=O [Compound 44]
15: Plant response rating, Rice (rice (Oryza sativa); Flood (flooded paddy test), 62 g ai/ha, scale 0 to 100, 0 no effect, 100 complete control)
90: Ryegrass, Italian plant response rating ([1]; postemergence, 0-100 scale) | Plant response rating, Ryegrass, Italian [1, 15] | Plant response rating, Ryegrass, Italian [1, 16] | Plant response rating, Bermudagrass [2, 12] | Plant response rating, Goosegrass [5, 14] | Plant response rating, Crabgrass, Large [8, 13] | Plant response rating, Soybean (soybean (Glycine max); [17])
65: Bermudagrass plant response rating ([2]; postemergence, 0-100 scale) | Plant response rating, Crabgrass, Large [8, 12]
98: Plant response rating, Foxtail, Giant [4, 12] | Plant response rating, Johnsongrass [6, 13] | Plant response rating, Crabgrass, Large [8, 14]
55: Johnsongrass plant response rating ([6]; postemergence, 0-100 scale)
70: Plant response rating, Soybean (soybean (Glycine max); [16])
60: Goosegrass plant response rating ([5]; postemergence, 0-100 scale) | Plant response rating, Goosegrass [5, 12] | Crabgrass, Large plant response rating ([8]; postemergence, 0-100 scale)
95: Plant response rating, Ryegrass, Italian [1, 12] | Plant response rating, Bermudagrass [2, 13] | Foxtail, Giant plant response rating ([4]; postemergence, 0-100 scale) | Plant response rating, Johnsongrass [6, 12] | Plant response rating, Johnsongrass [6, 17]
20: Ryegrass, Italian plant response rating ([1]; Preemergence, scale 0 to 100) | Plant response rating, Rice (rice (Oryza sativa); Flood (flooded paddy test), 125 g ai/ha, scale 0 to 100, 0 no effect, 100 complete control)
75: Plant response rating, Goosegrass [5, 13]
40: Plant response rating, Rice (rice (Oryza sativa); Flood (flooded paddy test), 250 g ai/ha, scale 0 to 100, 0 no effect, 100 complete control)
0: Bermudagrass plant response rating ([2]; Preemergence, scale 0 to 100 (0 no effect, 100 complete control)) | Plant response rating, Bermudagrass [2, 15] | Plant response rating, Bermudagrass [2, 18] | Plant response rating, Bermudagrass [2, 17] | Plant response rating, Galium ([3]; 62 g ai/ha) | Galium plant response rating ([3]; 8 g ai/ha) | Plant response rating, Foxtail, Giant [4, 15] | Plant response rating, Foxtail, Giant [4, 18] | Plant response rating, Foxtail, Giant [4, 17] | Foxtail, Giant plant response rating ([4]; Preemergence, scale 0 to 100) | Plant response rating, Goosegrass [5, 15] | Plant response rating, Goosegrass [5, 18] | Plant response rating, Goosegrass [5, 17] | Goosegrass plant response rating ([5]; Preemergence, scale 0 to 100) | Plant response rating, Johnsongrass [6, 15] | Plant response rating, Johnsongrass [6, 18] | Johnsongrass plant response rating ([6]; Preemergence, scale 0 to 100) | Kochia plant response rating (kochia (Kochia scoparia); postemergence, 0-100 scale) | Plant response rating, Kochia (kochia (Kochia scoparia); [12]) | Plant response rating, Kochia (kochia (Kochia scoparia); [13]) | Plant response rating, Kochia (kochia (Kochia scoparia); [14]) | Plant response rating, Kochia (kochia (Kochia scoparia); [15]) | Plant response rating, Kochia (kochia (Kochia scoparia); [18]) | Kochia plant response rating (kochia (Kochia scoparia); Preemergence, scale 0 to 100) | Lambsquarters plant response rating ([7]; postemergence, 0-100 scale) | Plant response rating, Lambsquarters [7, 12] | Plant response rating, Lambsquarters [7, 13] | Plant response rating, Lambsquarters [7, 14] | Plant response rating, Lambsquarters [7, 15] | Plant response rating, Lambsquarters [7, 18] | Plant response rating, Lambsquarters [7, 17] | Lambsquarters plant response rating ([7]; Preemergence, scale 0 to 100) | Plant response rating, Crabgrass, Large [8, 15] | Plant response rating, Crabgrass, Large [8, 18] | Plant response rating, Crabgrass, Large [8, 17] | Crabgrass, Large plant response rating ([8]; Preemergence, scale 0 to 100) | Morningglory plant response rating ([9]; postemergence, 0-100 scale) | Plant response rating, Morningglory [9, 12] | Plant response rating, Morningglory [9, 13] | Plant response rating, Morningglory [9, 14] | Plant response rating, Morningglory [9, 15] | Plant response rating, Morningglory [9, 17] | Morningglory plant response rating ([9]; Preemergence, scale 0 to 100) | Pigweed plant response rating ([10]; postemergence, 0-100 scale) | Plant response rating, Pigweed [10, 12] | Plant response rating, Pigweed [10, 13] | Plant response rating, Pigweed [10, 14] | Plant response rating, Pigweed [10, 15] | Plant response rating, Pigweed [10, 16] | Plant response rating, Pigweed [10, 17] | Pigweed plant response rating ([10]; Preemergence, scale 0 to 100) | Soybean plant response rating (soybean (Glycine max); postemergence, 0-100 scale) | Plant response rating, Soybean (soybean (Glycine max); [12]) | Plant response rating, Soybean (soybean (Glycine max); [14]) | Soybean plant response rating (soybean (Glycine max); Preemergence, scale 0 to 100) | Velvetleaf plant response rating ([11]; postemergence, 0-100 scale) | Plant response rating, Velvetleaf [11, 12] | Plant response rating, Velvetleaf [11, 14] | Plant response rating, Velvetleaf [11, 15] | Plant response rating, Velvetleaf [11, 16] | Plant response rating, Velvetleaf ([11]; Preemergence, 62 g ai/ha, 0 to 100 scale, 0 no effect, 100 complete control) | Velvetleaf plant response rating ([11]; Preemergence, scale 0 to 100) | Plant response rating, Rice (rice (Oryza sativa); Flood, 31 g ai/ha, scale 0 to 100)
100: Plant response rating, Ryegrass, Italian [1, 13] | Plant response rating, Ryegrass, Italian [1, 14] | Plant response rating, Ryegrass, Italian [1, 17] | Plant response rating, Bermudagrass [2, 14] | Plant response rating, Foxtail, Giant [4, 13] | Plant response rating, Foxtail, Giant [4, 14] | Plant response rating, Johnsongrass [6, 14] | Plant response rating, Kochia (kochia (Kochia scoparia); [17])
